Paper PMC10302047, “Structure–Activity Relationship Studies of Indolglyoxyl-Polyamine Conjugates as Antimicrobials and Antibiotic Potentiators” (Pharmaceuticals, 2023)
Converted amounts (≈) assume the structure as drawn. “Also recorded” adds a separate entry of the source. Like-named read-outs stand apart in the source and are kept apart here. Marks after values point to notes of the source that are not given here.

What was measured:
E. coli ATCC 25922 [1] = test system: E. coli ATCC 25922; parameters: method as in Cadelis et al. [16]; conditions: ref Cadelis et al. [16]; cited from earlier work
P. aeruginosa ATCC 27853 [2] = test system: P. aeruginosa ATCC 27853; parameters: method as in Cadelis et al. [16]; conditions: ref Cadelis et al. [16]; cited from earlier work
S. aureus ATCC 25923 [3] = conditions: S. aureus ATCC 25923; ref Cadelis et al. [16]; cited from earlier work
C. albicans ATCC 90028 [4] = test system: C. albicans ATCC 90028; parameters: method as in Cadelis et al. [16]; conditions: ref Cadelis et al. [16]; cited from earlier work
MRSA ATCC 43300 = assay: Antimicrobial susceptibility (MIC), MRSA; format: cell-based; conditions: Staphylococcus aureus; MRSA ATCC 43300; mean (n = 2); read-out: MIC MRSA
Experimental: (§1) The susceptibility of bacterial strains S. aureus (ATCC 25923), E. coli (ATCC 25922) and P. aeruginosa (ATCC 27853) to antibiotics and compounds was determined according to previously reported protocols. Additional antimicrobial evaluation against MRSA (ATCC 43300) and C. albicans (ATCC 90028) was undertaken at the Community for Open Antimicrobial Drug Discovery at The University of Queensland (Australia) according to their standard protocols as reported previously.

[5] = test system: HEK293 (human embryonic kidney cells); conditions: HEK293; ref Cadelis et al. [16]; read-out: Cyto. IC50 (concentration of compound at 50% cytotoxicity); cited from earlier work
P. aeruginosa ATCC 27853 [6] = conditions: doxycycline at 2 µg/mL (4.5 µM), P. aeruginosa ATCC 27853; ref Cadelis et al. [16]; cited from earlier work
human red blood cells = assay: Hemolytic assay; format: cell-based; conditions: mean (n = 2)
Experimental: Hemolysis assays were conducted according to previously reported protocols.

S. aureus ATCC 25923 [7] = assay: Antimicrobial susceptibility (MIC), S. aureus; format: cell-based, Staphylococcus aureus; conditions: Staphylococcus aureus, ATCC25923; S. aureus ATCC 25923; mean (n = 3)
Experimental: as §1

P. aeruginosa ATCC 27853 [8] = assay: Antimicrobial susceptibility (MIC), P. aeruginosa; format: cell-based; conditions: Pseudomonas aeruginosa, ATCC27853, mean (n = 3), read-out: MIC P. a
Experimental: as §1

P. aeruginosa ATCC 27853 [9] = assay: Antibiotic potentiation (MIC of antibiotics in the presence of synergizing compounds), P. aeruginosa; format: cell-based, Pseudomonas aeruginosa; conditions: for Conc (µM) for Potentiation of doxycycline: concentration required to restore doxycycline activity at 2 µg/mL (4.5 µM) against P. aeruginosa ATCC 27853
C. albicans ATCC 90028 [10] = assay: Antifungal susceptibility (MIC), C. albicans; format: cell-based; conditions: Candida albicans, ATCC90028, mean (n = 2)
Experimental: as §1

E. coli ATCC 25922 [11] = assay: Antimicrobial susceptibility (MIC), E. coli; format: cell-based; conditions: Escherichia coli, ATCC25922, mean (n = 3)
Experimental: as §1

[12] = Cytotoxicity assay HEK293; format: cell-based, human; conditions: human, HEK293 cells, mean (n = 2), read-out: Cyto. IC50 (concentration of compound at 50% cytotoxicity)
Experimental: (§2) Cytotoxicity assays were conducted according to previously reported protocols.

[13] = test system: HEK293 (human embryonic kidney cells); assay: Cytotoxicity assay HEK293; format: cell-based; conditions: mean (n = 2)
Experimental: as §2

A. baumannii AYE = assay: Antibiotic potentiation, A. baumannii; format: cell-based, Acinetobacter baumannii; conditions: mean (n = 3)
Experimental: (§3) Antibiotic enhancing activities were determined according to previously reported protocols.

E. coli ATCC 25922 [14] = assay: Antibiotic potentiation, E. coli; format: cell-based, Escherichia coli; conditions: mean (n = 3)
Experimental: as §3

[15] = test system: Klebsiella pneumoniae ST258; assay: Antibiotic potentiation, K. pneumoniae; format: cell-based; conditions: mean (n = 3)
Experimental: as §3

| SMILES | MIC E. c (E. coli ATCC 25922 [1]) | MIC P. a (P. aeruginosa ATCC 27853 [2]) | MIC S. a (S. aureus ATCC 25923 [3]) | MIC C. a (C. albicans ATCC 90028 [4]) | MIC (MRSA ATCC 43300) [µM] | IC50 [5] [µM] | Conc (µM) for Potentiation of doxycycline (P. aeruginosa ATCC 27853 [6]) | Hem. HC10 (concentration of compound at 10% hemolytic activity) (human red blood cells) | MIC (S. aureus ATCC 25923 [7]) [µM] | MIC (P. aeruginosa ATCC 27853 [8]) [µM] | Conc (µM) for Potentiation of doxycycline (P. aeruginosa ATCC 27853 [9]) [µM] | MIC (C. albicans ATCC 90028 [10]) [µM] | MIC (E. coli ATCC 25922 [11]) [µM] | IC50 [12] [µM] | other results |
| --- | --- | --- | --- | --- | --- | --- | --- | --- | --- | --- | --- | --- | --- | --- | --- |
| Cc1ccc2[nH]cc(C(=O)C(=O)NCCCNCCCCNCCCNC(=O)C(=O)c3c[nH]c4ccc(C)cc34)c2c1 [Compound 5] | 200 ^h µM | 100 ^h µM | 25 ^h µM | >40.0 ^h µM | 20 (≈ 11.5 µg/mL) | > 40 | 6.25 ^b µM | >40 µM |  |  |  |  |  |  |  |
| Cc1cccc2c(C(=O)C(=O)NCCCNCCCCCCCCNCCCNC(=O)C(=O)c3c[nH]c4c(C)cccc34)c[nH]c12.O=C(O)C(F)(F)F.O=C(O)C(F)(F)F [Compound 23c, N^1,N^8-Bis(3-(2-(7-methyl-1H-indol-3-yl)-2-oxoacetamido)propyl)octane-1,8-diaminium 2,2,2-trifluoroacetate] |  |  |  |  | ≤ 0.29 |  |  |  | 7.3 | > 230 | 230 | > 37 | 29 | > 37 | Cyto. IC50 (concentration of compound at 50% cytotoxicity) [13]: non-cytotoxic; also recorded: no detectable cytotoxicity |
| O=C(NCCCNCCCCNCCCNC(=O)C(=O)c1c[nH]c2ccccc12)C(=O)c1c[nH]c2ccccc12 [Compound 2] | >100 ^h µM | >100 ^h µM | >100 ^h µM | >41.4 ^h µM | 41.4 (≈ 22.5 µg/mL) | > 41 |  | >41 µM |  |  |  |  |  |  |  |
| O=C(NCCCNCCCCCCNCCCNC(=O)C(=O)c1c[nH]c2c(F)cccc12)C(=O)c1c[nH]c2c(F)cccc12.O=C(O)C(F)(F)F.O=C(O)C(F)(F)F [Compound 21a, N^1,N^6-Bis(3-(2-(7-fluoro-1H-indol-3-yl)-2-oxoacetamido)propyl)hexane-1,6-diaminium 2,2,2-trifluoroacetate] |  |  |  |  | 19.1 |  |  | >38 ^e µM | 7.5 | 240 |  | > 38 | 240 | 12 | Concentration (µM) for Potentiation of chloramphenicol (A. baumannii AYE; chloramphenicol 2 µg/mL): 200 µM; Concentration (µM) for Potentiation of doxycycline (A. baumannii AYE; doxycycline 2 µg/mL): 12.5 µM; Concentration (µM) for Potentiation of erythromycin (A. baumannii AYE; erythromycin 2 µg/mL): 100 µM; Concentration (µM) for Potentiation of nalidixic acid (A. baumannii AYE; nalidixic acid 2 µg/mL): 200 µM; Concentration (µM) for Potentiation, no antibiotic (A. baumannii AYE; no antibiotic): 100 µM; Concentration (µM) for Potentiation of erythromycin (P. aeruginosa ATCC 27853 [9]; P. aeruginosa ATCC 27853, erythromycin 2 µg/mL, mean (n = 3)): 100 µM; Concentration (µM) for Potentiation of chloramphenicol (E. coli ATCC 25922 [14]; chloramphenicol 2 µg/mL): >200 µM; Concentration (µM) for Potentiation of doxycycline (E. coli ATCC 25922 [14]; doxycycline 2 µg/mL): 1.56 µM; Concentration (µM) for Potentiation of erythromycin (E. coli ATCC 25922 [14]; erythromycin 2 µg/mL): 200 µM; Concentration (µM) for Potentiation of nalidixic acid (E. coli ATCC 25922 [14]; nalidixic acid 2 µg/mL): 200 µM; Concentration (µM) for Potentiation of chloramphenicol ([15]; chloramphenicol 2 µg/mL): >200 µM; Concentration (µM) for Potentiation of doxycycline ([15]; doxycycline 2 µg/mL): 200 µM; Concentration (µM) for Potentiation of erythromycin ([15]; erythromycin 2 µg/mL): >200 µM; Concentration (µM) for Potentiation of nalidixic acid ([15]; nalidixic acid 2 µg/mL): >200 µM |
| O=C(NCCCNCCCCNCCCNC(=O)C(=O)c1c[nH]c2c(F)cccc12)C(=O)c1c[nH]c2c(F)cccc12 [Compound 6] | 200 ^h µM | 200 ^h µM | 25 ^h µM | >39.6 ^h µM | 19.8 (≈ 11.5 µg/mL) | 19 | 3.125 ^b µM | >40 µM |  |  |  |  |  |  |  |
| O=C(NCCCNCCCCNCCCNC(=O)C(=O)c1c[nH]c2ccc(Br)cc12)C(=O)c1c[nH]c2ccc(Br)cc12 [Compound 3] | 25 ^h µM | 50 ^h µM | 3.125 ^h µM | >34.4 ^h µM | 4.32 (≈ 3.03 µg/mL) | 14 | 3.125 ^b µM | >34 µM |  |  |  |  |  |  |  |
| Cc1cccc2c(C(=O)C(=O)NCCCNCCCCCCCNCCCNC(=O)C(=O)c3c[nH]c4c(C)cccc34)c[nH]c12.O=C(O)C(F)(F)F.O=C(O)C(F)(F)F [Compound 23b, N^1,N^7-Bis(3-(2-(7-methyl-1H-indol-3-yl)-2-oxoacetamido)propyl)heptane-1,7-diaminium 2,2,2-trifluoroacetate] |  |  |  |  | ≤ 0.3 |  |  |  | 14.8 | > 240 | 240 | > 38 | 120 | > 38 | Cyto. IC50 (concentration of compound at 50% cytotoxicity) [13]: non-cytotoxic; also recorded: no detectable cytotoxicity |
| Cc1cccc2c(C(=O)C(=O)NCCCNCCCCNCCCNC(=O)C(=O)c3c[nH]c4c(C)cccc34)c[nH]c12 [Compound 8] | >200 ^h µM | >200 ^h µM | 25 ^h µM | >40.0 ^h µM | 20 (≈ 11.5 µg/mL) | > 40 | 6.25 ^b µM | >40 µM |  |  |  |  |  |  |  |
| COc1cccc2c(C(=O)C(=O)NCCCNCCCCNCCCNC(=O)C(=O)c3c[nH]c4c(OC)cccc34)c[nH]c12 [Compound 7] | >200 ^h µM | >200 ^h µM | 15 ^h µM | 38.4 ^h µM | 38.4 (≈ 23.2 µg/mL) | 27 | 3.75 ^b µM | >38 µM |  |  |  |  |  |  |  |
| COc1ccc2[nH]cc(C(=O)C(=O)NCCCNCCCCNCCCNC(=O)C(=O)c3c[nH]c4ccc(OC)cc34)c2c1 [Compound 4] | >200 ^h µM | >200 ^h µM | 100 ^h µM | >38.4 ^h µM | 38.4 (≈ 23.2 µg/mL) | > 38 | 12.5 ^b µM | >38 µM |  |  |  |  |  |  |  |
| Cc1cccc2c(C(=O)C(=O)NCCCNCCCCCCNCCCNC(=O)C(=O)c3c[nH]c4c(C)cccc34)c[nH]c12.O=C(O)C(F)(F)F.O=C(O)C(F)(F)F [Compound 23a, N^1,N^6-Bis(3-(2-(7-methyl-1H-indol-3-yl)-2-oxoacetamido)propyl)hexane-1,6-diaminium 2,2,2-trifluoroacetate] |  |  |  |  | ≤ 0.3 |  |  | >39 µM | 30.2 | > 240 | 60 | > 39 | 60 | > 39 |  |
| COc1cccc2c(C(=O)C(=O)NCCCNCCCCCCNCCCNC(=O)C(=O)c3c[nH]c4c(OC)cccc34)c[nH]c12.O=C(O)C(F)(F)F.O=C(O)C(F)(F)F [Compound 22a, N^1,N^6-Bis(3-(2-(7-methoxy-1H-indol-3-yl)-2-oxoacetamido)propyl)hexane-1,6-diaminium 2,2,2-trifluoroacetate] |  |  |  |  | > 37 |  |  | >37 µM | 50 | 800 | 100 | > 37 | 400 | > 37 |  |
| Cc1cccc2c(C(=O)C(=O)NCCCNCCCCCCCCCCCCNCCCNC(=O)C(=O)c3c[nH]c4c(C)cccc34)c[nH]c12.O=C(O)C(F)(F)F.O=C(O)C(F)(F)F [Compound 23e, N^1,N^12-Bis(3-(2-(7-methyl-1H-indol-3-yl)-2-oxoacetamido)propyl)dodecane-1,12-diaminium 2,2,2-trifluoroacetate] |  |  |  |  | ≤ 0.27 |  |  | 8.4 µM | 6.85 | > 220 | 220 | ≤ 0.27 | 13.7 | > 35 |  |
